Broadly, the IC50 is the concentration that gives 50% inhibition.

Sequence of Vps34 enzyme (Q8NEB9 whole entry): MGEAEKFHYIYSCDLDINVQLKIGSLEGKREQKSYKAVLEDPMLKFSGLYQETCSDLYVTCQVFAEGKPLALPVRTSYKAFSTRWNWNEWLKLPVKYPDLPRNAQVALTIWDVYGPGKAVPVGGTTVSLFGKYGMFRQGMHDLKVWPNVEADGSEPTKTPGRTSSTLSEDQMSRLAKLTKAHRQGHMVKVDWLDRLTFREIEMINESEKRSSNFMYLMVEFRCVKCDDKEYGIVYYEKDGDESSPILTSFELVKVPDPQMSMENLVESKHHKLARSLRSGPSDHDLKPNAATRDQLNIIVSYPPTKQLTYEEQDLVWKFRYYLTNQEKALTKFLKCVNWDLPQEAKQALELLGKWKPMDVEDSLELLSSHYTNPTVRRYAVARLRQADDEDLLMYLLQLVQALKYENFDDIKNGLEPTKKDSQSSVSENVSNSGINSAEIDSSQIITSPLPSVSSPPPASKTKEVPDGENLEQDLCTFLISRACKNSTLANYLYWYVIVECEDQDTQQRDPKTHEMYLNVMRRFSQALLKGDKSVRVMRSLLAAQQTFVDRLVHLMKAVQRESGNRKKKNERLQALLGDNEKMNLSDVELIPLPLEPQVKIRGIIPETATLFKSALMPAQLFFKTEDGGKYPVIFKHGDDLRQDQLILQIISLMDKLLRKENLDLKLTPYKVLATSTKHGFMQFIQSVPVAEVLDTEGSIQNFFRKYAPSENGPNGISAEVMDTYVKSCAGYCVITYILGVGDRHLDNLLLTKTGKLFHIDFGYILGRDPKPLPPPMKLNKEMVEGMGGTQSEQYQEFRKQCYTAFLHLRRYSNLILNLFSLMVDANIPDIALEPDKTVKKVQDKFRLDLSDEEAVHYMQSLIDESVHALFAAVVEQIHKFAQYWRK

This assay deals with Vps34 enzyme (Homo sapiens (Human), UniProt Q8NEB9). Briefly: Vps34 Biochemical Assay (Adapta kinase assay, TR-FRET). Particulars: 20 μM ATP and 200 μM PI:PS in substrate mix, 1 h at room temperature, read-out: Median IC50 nM Adapta. The method, then:
Dilution series of compounds of the invention were prepared in DMSO at 100 times the final assay concentration (n1=n0/3 in 10 points). The compounds were further diluted to 4 times the assay concentration in assay buffer (Life technologies buffer Q, PV5125, diluted 5 times supplemented with 2 mM DTT and 2 mM MnCl2). 2.5 μl of the diluted compounds were added to a 384 well assay plate followed by 2.5 μl of 16.5 nM Vps34 enzyme (Life technologies, PV5126). Enzyme and compounds were pre-incubated at rt for 15 min. Then 5 μl of substrate mix containing 20 μM ATP (Life technologies, PV3227) and 200 μM PI:PS substrate (Life technologies, PV5122) in assay buffer was added to the wells containing compound and enzyme. Mixing was performed by pipetting several times. The reaction was incubated at room temperature for 1 h. Then 5 μl stop-detection mix, prepared as described in the Adapta kinase assay kit instructions (Life technologies, PV5099) containing Adapta Eu-anti-ADP antibody (2.3 nM), Alexa Fluor 647 ADP tracer (9 nM) and EDTA (30 mM) in TR-FRET buffer, was added to quench the reaction. Mixing was performed by pipetting several times. The assay plate was then incubated at room temperature for 30 min and read with Artemis micro plate reader. Percent inhibition of the compounds as compared to DMSO treated control samples was calculated. By the use of Dotmatics software compound concentration versus percent inhibition was fitted to generate IC50 values.
(In general: In TR-FRET formats the signal depends on donor and acceptor labels being close together.)
Regarding `O=c1cc(-c2ccnc3[nH]c(-c4ccc(C(F)(F)F)nc4)cc23)cc(N2CCCCC2C(F)(F)F)[nH]1` (stereo not drawn) [Example 55, 6-[2-(Trifluoromethyl)-1-piperidyl]-4-[2-[6-(trifluoromethyl)-3-pyridyl]-1H-pyrrolo[2,3-b]pyridin-4-yl]-1H-pyridin-2-one], the IC50 is below 5 nM. The same measure for `CS(=O)(=O)N1CCN(c2cc(-c3ccnc4[nH]ncc34)cc(=O)[nH]2)C(C(F)(F)F)C1` (stereo not drawn) [Example 88, 6-[4-Methylsulfonyl-2-(trifluoromethyl)piperazin-1-yl]-4-(1H-pyrazolo[3,4-b]pyridin-4-yl)-1H-pyridin-2-one]: below 5 nM. With `Cc1ccc(-c2cc3c(-c4cc(N5CCOCC5C(F)(F)F)[nH]c(=O)c4)ccnc3[nH]2)s1` (stereo not drawn) [Example 48, 4-[2-(5-Methyl-2-thienyl)-1H-pyrrolo[2,3-b]pyridin-4-yl]-6-[3-(trifluoromethyl)morpholin-4-yl]-1H-pyridin-2-one] the figure was below 5 nM. The same measure for `O=c1cc(-c2ccnc3[nH]c(-c4cncc(C(F)(F)F)c4)cc23)cc(N2CCCCC2C(F)(F)F)[nH]1` (stereo not drawn) [Example 58, 6-[2-(Trifluoromethyl)-1-piperidyl]-4-[2-[5-(trifluoromethyl)-3-pyridyl]-1H-pyrrolo[2,3-b]pyridin-4-yl]-1H-pyridin-2-one]: 7 nM. Regarding `O=c1cc(-c2ccnc3[nH]c(-c4cnc(C(F)(F)F)nc4)cc23)cc(N2CCCCC2C(F)(F)F)[nH]1` (stereo not drawn) [Example 52, 6-[2-(Trifluoromethyl)-1-piperidyl]-4-[2-[2-(trifluoromethyl)pyrimidin-5-yl]-1H-pyrrolo[2,3-b]pyridin-4-yl]-1H-pyridin-2-one], the IC50 is below 5 nM. The same measure for `Cc1cc2c(-c3cc(N4CCOCC4)[nH]c(=O)c3)ccnc2[nH]1` [Example 16, 4-(2-Methyl-1H-pyrrolo[2,3-b]pyridin-4-yl)-6-morpholino-1H-pyridin-2-one]: 12 nM; for `O=c1cc(-c2ccnc3[nH]c(C4CC4)cc23)cc(-c2ccccc2C(F)(F)F)[nH]1` [Example 79, 4-(2-cyclopropyl-1H-pyrrolo[2,3-b]pyridin-4-yl)-6-[2-(trifluoromethyl)phenyl]-1H-pyridin-2-one]: below 5 nM.

As to `N#Cc1cc2c(-c3cc(-c4ccccc4C(F)(F)F)[nH]c(=O)c3)ccnc2[nH]1` [Example 80, 4-[2-Oxo-6-[2-(trifluoromethyl)phenyl]-1H-pyridin-4-yl]-1H-pyrrolo[2,3-b]pyridine-2-carbonitrile], the IC50 was below 5 nM. On to `O=c1cc(-c2ccnc3[nH]c(-c4cccc(C(F)(F)F)c4)cc23)cc(N2CCOCC2C(F)(F)F)[nH]1` (stereo not drawn) [Example 45, 6-[3-(Trifluoromethyl)morpholin-4-yl]-4-[2-[3-(trifluoromethyl)phenyl]-1H-pyrrolo[2,3-b]pyridin-4-yl]-1H-pyridin-2-one], for which the IC50 was found to be 34 nM.

The values are drawn from patent publication US11498919B2, “Azaindolylpyridone and diazaindolylpyridone compounds” (Sprint Bioscience AB, priority 2017, dated 2022).
